Reference: patent US20050070602A1, “Method of modulating immune response by administration of immuno-activation agent” (priority 2003, published 2005)
“And” between values parts separate entries of the source, which are not always exact repeats. Equal values may be shown once.

Key:
[1] = tested on: B cells and NK cells in the peripheral blood; experiment: B and NK cells in peripheral blood by direct fluorescent antibody flow cytometry; type: in vivo, mice
Text: (§1) Five week-old BALB/c (nu/nu) male mice purchased from Charles River Laboratories (Wilmington, Mass.) were housed in a barrier facility with 12-h light/dark cycles; tap water and diets provided ad libitum. They were randomly divided into two groups of nine mice. […] The diets began one week prior to inoculation of PC-3 cells and continued until termination of experiments. The xenografted tumors were established by a single s.c. injection in the flank of 0.8×10^6 PC-3 cells suspended in ice-cold matrigel (sigma). The tumor volumes were measured every 7-8 days and calculated by length×width×height×0.5236. Animal body weights were recorded weekly and at autopsy; food consumption was determined twice per week. Two hours before the mice were euthanized, 5-bromo-2′-deoxyuridine (BrdU) (10 mg/kg body weight) was injected in the peritoneum for in vivo labeling of proliferating cells. At autopsy, xenograft tumors were weighed and frozen in liquid nitrogen or fixed in 10% formalin and embedded in paraffin. The BrdU-labeled cells of paraffin embedded tissues on slides were detected employing a monoclonal anti-BrdU antibody from a BrdU detection kit (Roche Molecular Biochemicals) according to manufacturer's direction. The mean numbers of labeled cells from multiple fields were calculated. The comparisons between control and experimental groups were performed with Student's t test.
Monoclonal antibodies against mouse B cell antigen CD19 or against Pan NK cell antigen CD49b were used. A mouse isotype control was used as a background.
The quantities of B cells and NK cells in the peripheral blood of all mice were determined by direct immunofluorescent antibody technique with the flow cytometric method. Monoclonal antibodies against mouse B cell antigen CD19 or against mouse Pan NK cell antigen CD49b were used.

PC-3 cell antigens = experiment: Serum antibodies against cultured PC-3 cells, indirect immunofluorescence with flow cytometry; type: in vivo, mice
Protocol: The reaction of serum antibodies from mice on the experimental or control diet with cultured PC-3 cells was analyzed with an indirect immunofluorescent antibody technique. A fluoresecin-labeled goat IgG-(Fab′)2 antibody against mouse Ig was used as the second antibody. PC-3 cells stained with a nonspecific mouse IgG as the first antibody were used as a background. The proportion of the positively stained cells and the mean fluorescence intensity were analyzed with the intensity channel on a flow cytometer.
Mouse sera were incubated with cultured PC-3 cells to detect the presence and reactivity of antibodies against PC-3 antigens using an indirect immunofluorescent antibody technique. The proportion of the positively stained cells and the mean fluorescence intensity were analyzed by a flow cytometric method. […] For example, at the titer of 20, the antisera from mice on experimental diet detected approximately 24-38% cells while approximately 7-16% cells detected with the sera from mice on the control diet.

xenografted PC-3 tumors [2] = experiment: Histology and immunohistochemical staining of xenografted tumor tissue for immune cells and bound mouse Ig; type: in vivo, mice
Text: as §1
The changes of B and NK cells were further examined in the-frozen and paraffin embedded xenografted tumor tissues by for immunohistochemical staining. Mouse B cells were identified with a primary monoclonal rat anti-B220 antibody, and NK cells of immunodeficient mice detected with a rat anti-mouse CD90.2 (18) primary antibody (BD PharMingen). A biotin-conjugated goat anti-rat Ig was used as a secondary antibody, with chromogen color development using an ImmunoCruz Staining System (Santa Cruz Biotechnology). A rat IgG2aK was used as an isotype control. The binding of mouse Ig to xenografted tumor cells was determined by a direct antibody staining method using a biotinylated goat anti-mouse Ig (BD PhaMingen), or an isotype Ig control.

xenografted PC-3 tumors [3] = experiment: Apoptotic cells in xenografted tumors by TUNEL; type: in vivo, mice; settings: nine weeks PEITC-NAC diet
Protocol: The apoptotic cells of xenografted tumors were determined with paraffin embedded tissue slides by the characteristic nucleus morphology, and by the presence of DNA strand breaks using the terminal deoxynucleotidyl tranferase-mediated biotinylated UTP nick end labeling (TUNEL). An in situ detection kit from Roche Molecular Biochemicals, Indianapolis, Ind. was employed according to manufacturer's direction (17). Multiple fields, but not necrotic tissues, were determined for apoptotic cells.

[4] = tested on: PARP (poly (ADP-ribose) polymerase); experiment: Western blot of PARP cleavage in xenografted tumors; type: in vivo, human; settings: pooled experimental tumors vs control
Protocol: (§2) The protein levels of xenografts were determined by Western blot analyses using standard procedures (19). Total proteins were prepared from each group of pooled individual xenografts of equal weight. The tissues were homogenized in the presence of a lysis buffer with protease inhibitors (17) and lysates collected after centrifugation at 4° C. Polyclonal antibodies against human p21^WAF-1/Cip-1, p27^Kip1, cyclin E, and an anti-cyclin D1 cross reactive with cyclins D2 and D3, an anti-Rb reactive with both phosphorylated and non-phosphorylated proteins, and an antibody against intact poly (ADP-ribose) polymerase (PARP) and the 89 kDa fragment were purchased from Santa Cruz Biotechnology. Preferably the endogenous cyclin-dependent kinase inhibitors are p151NK4B, p161NK4A, p181NK4C, p191NK4D, p21WAF-1/Cip-1, p27Kip1 and/or p57 that inhibit cyclin-dependent kinases.

xenografted PC-3 tumors [5] = experiment: Proliferating (BrdU-labeled) and mitotic cells in xenografted tumors; type: in vivo, mice
Text: as §1

cyclin D1 = experiment: Western blot of xenografted tumors: cyclin D1; type: in vivo, human; settings: pooled experimental tumors vs controls
Protocol: as §2

Rb = experiment: Western blot of xenografted tumors: Rb phosphorylation; type: in vivo, human; settings: experimental tumors vs controls
Protocol: as §2

[6] = tested on: human prostate cancer PC-3 cells; experiment: Xenograft tumor assay, PC-3 cells in BALB/c (nu/nu) mice; type: in vivo
Text: as §1

[7] = Text: as §1
PC-3 cells = experiment: Cell cycle phases of cultured PC-3 cells by flow cytometry; type: cell-based, human; settings: exposure for 24 hours in cultures
Protocol: The product was crystallized from hexane, and purity established by HPLC, NMR and MS; purity was greater than 98%. A human prostate cancer cell line, androgen-independent PC-3 was used as antigen in this invention. PC-3 cells were seeded at 1.5×10^5 cells/ml in RPMI-1640 containing 15% heat inactivated fetal calf serum with 1% penicillin (10,000 units/ml) and streptomycin (10,000 μg/ml) (15). Cell cycle phase determination was performed using a BD FACScan cytometer according to published procedures (16, 17). The cells were fixed with 80% ethanol at 4° C. and incubated on ice before the DNA was stained with propidium iodide (50 μg/ml).

prostate cancer cells = settings: earlier report (ref. 12); cited from earlier work

CC(=O)N[C@@H](CSC(=S)NCCc1ccccc1)C(=O)O [PEITC-NAC, N-acetylcysteine conjugate of phenethyl isothiocyanate]
Mean of NK Cells (%), average of experimental mice ([1]; average of 3 experimental mice, control average 24.4, PEITC-NAC diet 8 μmol/g): 30.5% | Mean of B Cells (%), average of experimental mice ([1]; average of 3 experimental mice, control average 30.5, PEITC-NAC diet 8 μmol/g): 42.0% | Mean of B Cells (%) ([1]; individual experimental mice, peripheral blood, CD19, % of total mononuclear cells, PEITC-NAC diet 8 μmol/g of AIN-76A, 30 days, PC-3 xenografted nude mice): 45.8% and 42.1% and 38.3% | Mean of NK Cells (%) ([1]; individual experimental mice, peripheral blood, CD49b, % of total mononuclear cells, PEITC-NAC diet 8 μmol/g of AIN-76A, 30 days, PC-3 xenografted nude mice): 27.6% and 38.0% and 26.0% | antisera titer against PC-3 cell antigens (PC-3 cell antigens; 6 weeks after injection of PC-3 cells, vs basal control diet): higher titer | mean fluorescence on stained PC-3 cells (PC-3 cell antigens; antisera from experimental diet mice vs control mice sera): significantly more intense | PC-3 cells detected by antisera (PC-3 cell antigens; serum titer of 20, mice on experimental diet, control diet 7-16%): 24-38% | lymphocytes around tumor nodules (xenografted PC-3 tumors [2]; H & E sections, after nine weeks of PEITC-NAC diet, not in control mice): surrounded by aggregates of small lymphocytes | NK cell receptor NKG2A/C/E among infiltrating cells (xenografted PC-3 tumors [2]; immunohistochemical staining, PEITC-NAC treated mice): demonstrated among cells infiltrating around the tumor nodules | B220 staining of lymphocytes around tumor nodules (xenografted PC-3 tumors [2]; immunohistochemical staining, experimental tumors): great majority of them were B cells bearing marker B220 | CD90.2 staining of lymphocytes around tumor nodules (xenografted PC-3 tumors [2]; immunohistochemical staining, marker for T and NK cells): Small quantity of lymphocytes stained positive for CD90.2 | mouse immunoglobulins bound to xenografted tumor cells (xenografted PC-3 tumors [2]; immunoperoxidase staining, experimental but not control tumors): bound mouse immunoglobulins | elevation of apoptotic rate vs control tumors (xenografted PC-3 tumors [3]): approximately two | average apoptotic rate of tumors (xenografted PC-3 tumors [3]; control 14.4%, P=0.02): 29.29% | cleaved PARP fragments incl. 89 kDa fragment [4]: Significant increase of the cleaved fragments | proliferating cells, less than in control mice (xenografted PC-3 tumors [5]; BrdU labeling, tumors at autopsy): approximately 75% | mitotic figures (xenografted PC-3 tumors [5]; tumors from PEITC-NAC fed mice, control greater than five per field): three | reduced expression of cyclin D1 (cyclin D1): 32% | Rb phosphorylation (Rb): significant reduction of Rb phosphorylation | tumor incidence ([6]; PEITC-NAC diet 8 μmol/g, control 100%): 88% | time for tumors to be palpable ([6]; after inoculation of PC-3 cells, PEITC-NAC diet 8 μmol/g, control 7-10 days): 7 to 22 days | tumor volumes vs control tumors ([6]; during study period, P<0.05): smaller | mice with tumor inhibition ([6]; mice fed with PEITC-NAC diet): 100% | daily food consumption, less than control mice ([7]; PEITC-NAC diet): approximately 6.5% | average weights of kidneys and spleens vs controls ([7]; at autopsy, P>0.13): the difference was not significant | average body weight at termination ([7]; experimental mice, control mice 21.89 g): 20.93 g | behavior of animals ([7]; throughout the study period, PEITC-NAC diet): no signs of unusual behavior | cell cycle phases of PC-3 cells (PC-3 cells): concentration-related reduction of S- and G2M-phases | growth of prostate cancer cells in cultures (prostate cancer cells): significantly inhibited
